The subject of assay [1] is MOLT-4 cells. Put plainly: Cell viability assay, MTS, 48 h, MOLT-4. The format is cell-based. To be noted: Homo sapiens, MOLT-4, 48 h, 48 hours, read-out: IC50 (48 hours) MOLT-4. The protocol:
(§1) Acute lymphoblastic leukemia cells (MOLT-4 and RS4; 11) or small cell lung cancer (NCI-H146 or simply H146) were incubated with increasing concentrations of Bcl-xL degraders for 48 h. Cell viability was measured by tetrazolium-based MTS assay.

Assay [2] concerns RS4;11 cells. Put plainly: Cell viability assay, MTS, 48 h, RS4;11. Format: cell-based. Particulars: Homo sapiens, RS4-11, 48 h, 48 hours, read-out: IC50 (48 hours) RS4;11. The protocol: as §1

Each structure is given as a SMILES string.

Turning to `Cc1ncsc1-c1ccc([C@H](C)NC(=O)[C@@H]2C[C@@H](O)CN2C(=O)[C@@H](NC(=O)CCCCCC(=O)N2CCN(CC3(C)CCC(c4ccc(Cl)cc4)=C(CN4CCN(c5ccc(C(=O)NS(=O)(=O)c6ccc(N[C@H](CCN7CCOCC7)CSc7ccccc7)c(S(=O)(=O)C(F)(F)F)c6)cc5)CC4)C3)CC2)C(C)(C)C)cc1` (stereo partly drawn) [degrader #16, (2S,4R)-1-((2S)-2-(7-(4-((4′-chloro-4-methyl-6-((4-(4-(((4-(((R)-4-morpholino-1-(phenylthio)butan-2-yl)amino)-3-((trifluoromethyl)sulfonyl)phenyl)sulfonyl)carbamoyl)phenyl)piperazin-1-yl)methyl)-2,3,4,5-tetrahydro-[1,1′-biphenyl]-4-yl)methyl)piperazin-1-yl)-7-oxoheptanamido)-3,3-dimethylbutanoyl)-4-hydroxy-N—((S)-1-(4-(4-methylthiazol-5-yl)phenyl)ethyl)pyrrolidine-2-carboxamide], the IC50 in assay [1] and in assay [2] was less than 0.05 µM throughout.
On to `Cc1ncsc1-c1ccc([C@H](C)NC(=O)[C@@H]2C[C@@H](O)CN2C(=O)[C@@H](NC(=O)CCCCCCC(=O)N2CCN(CC3(C)CCC(c4ccc(Cl)cc4)=C(CN4CCN(c5ccc(C(=O)NS(=O)(=O)c6ccc(N[C@H](CCN7CCOCC7)CSc7ccccc7)c(S(=O)(=O)C(F)(F)F)c6)cc5)CC4)C3)CC2)C(C)(C)C)cc1` (stereo partly drawn) [degrader #17, (2S,4R)-1-((2S)-2-(8-(4-((4′-chloro-4-methyl-6-((4-(4-(((4-(((R)-4-morpholino-1-(phenylthio)butan-2-yl)amino)-3-((trifluoromethyl)sulfonyl)phenyl)sulfonyl)carbamoyl)phenyl)piperazin-1-yl)methyl)-2,3,4,5-tetrahydro-[1,1′-biphenyl]-4-yl)methyl)piperazin-1-yl)-8-oxooctanamido)-3,3-dimethylbutanoyl)-4-hydroxy-N—((S)-1-(4-(4-methylthiazol-5-yl)phenyl)ethyl)pyrrolidine-2-carboxamide], for which the half-inhibitory concentration (IC50) in assay [1] and in assay [2] was less than 0.05 µM throughout.
For the compound `Cc1ncsc1-c1ccc([C@H](C)NC(=O)[C@@H]2C[C@@H](O)CN2C(=O)[C@@H](NC(=O)CCCCCCCC(=O)N2CCN(CC3(C)CCC(c4ccc(Cl)cc4)=C(CN4CCN(c5ccc(C(=O)NS(=O)(=O)c6ccc(N[C@H](CCN7CCOCC7)CSc7ccccc7)c(S(=O)(=O)C(F)(F)F)c6)cc5)CC4)C3)CC2)C(C)(C)C)cc1` (stereo partly drawn) [degrader #18, (2S,4R)-1-((2S)-2-(9-(4-((4′-chloro-4-methyl-6-((4-(4-(((4-(((R)-4-morpholino-1-(phenylthio)butan-2-yl)amino)-3-((trifluoromethyl)sulfonyl)phenyl)sulfonyl)carbamoyl)phenyl)piperazin-1-yl)methyl)-2,3,4,5-tetrahydro-[1,1′-biphenyl]-4-yl)methyl)piperazin-1-yl)-9-oxononanamido)-3,3-dimethylbutanoyl)-4-hydroxy-N—((S)-1-(4-(4-methylthiazol-5-yl)phenyl)ethyl)pyrrolidine-2-carboxamide], the IC50 in assay [1] and in assay [2] was less than 0.05 µM each time.
For `Cc1ncsc1-c1ccc([C@H](C)NC(=O)[C@@H]2C[C@@H](O)CN2C(=O)[C@@H](NC(=O)CCCCCCCCC(=O)N2CCN(CC3(C)CCC(c4ccc(Cl)cc4)=C(CN4CCN(c5ccc(C(=O)NS(=O)(=O)c6ccc(N[C@H](CCN7CCOCC7)CSc7ccccc7)c(S(=O)(=O)C(F)(F)F)c6)cc5)CC4)C3)CC2)C(C)(C)C)cc1` (stereo partly drawn) [degrader #19, (2S,4R)-1-((2S)-2-(10-(4-((4′-chloro-4-methyl-6-((4-(4-(((4-(((R)-4-morpholino-1-(phenylthio)butan-2-yl)amino)-3-((trifluoromethyl)sulfonyl)phenyl)sulfonyl)carbamoyl)phenyl)piperazin-1-yl)methyl)-2,3,4,5-tetrahydro-[1,1′-biphenyl]-4-yl)methyl)piperazin-1-yl)-10-oxodecanamido)-3,3-dimethylbutanoyl)-4-hydroxy-N—((S)-1-(4-(4-methylthiazol-5-yl)phenyl)ethyl)pyrrolidine-2-carboxamide], the IC50 in assay [1] and in assay [2] was 0.05 to 0.15 µM in each case.
For the compound `Cc1ncsc1-c1ccc([C@H](C)NC(=O)[C@@H]2C[C@@H](O)CN2C(=O)[C@@H](NC(=O)CCCCCCCCCC(=O)N2CCN(CC3(C)CCC(c4ccc(Cl)cc4)=C(CN4CCN(c5ccc(C(=O)NS(=O)(=O)c6ccc(N[C@H](CCN7CCOCC7)CSc7ccccc7)c(S(=O)(=O)C(F)(F)F)c6)cc5)CC4)C3)CC2)C(C)(C)C)cc1` (stereo partly drawn) [degrader #20, (2S,4R)-1-((2S)-2-(11-(4-((4′-chloro-4-methyl-6-((4-(4-(((4-(((R)-4-morpholino-1-(phenylthio)butan-2-yl)amino)-3-((trifluoromethyl)sulfonyl)phenyl)sulfonyl)carbamoyl)phenyl)piperazin-1-yl)methyl)-2,3,4,5-tetrahydro-[1,1′-biphenyl]-4-yl)methyl)piperazin-1-yl)-11-oxoundecanamido)-3,3-dimethylbutanoyl)-4-hydroxy-N—((S)-1-(4-(4-methylthiazol-5-yl)phenyl)ethyl)pyrrolidine-2-carboxamide], the IC50 in assay [1] and in assay [2] was 0.15 to 0.5 µM throughout.
For the compound `Cc1ncsc1-c1ccc([C@H](C)NC(=O)[C@@H]2C[C@@H](O)CN2C(=O)[C@@H](NC(=O)CCCCCC(=O)N2CCCN(CC3(C)CCC(c4ccc(Cl)cc4)=C(CN4CCN(c5ccc(C(=O)NS(=O)(=O)c6ccc(N[C@H](CCN7CCOCC7)CSc7ccccc7)c(S(=O)(=O)C(F)(F)F)c6)cc5)CC4)C3)CC2)C(C)(C)C)cc1` (stereo partly drawn) [degrader #21, (2S,4R)-1-((2S)-2-(7-(4-((4′-chloro-4-methyl-6-((4-(4-(((4-(((R)-4-morpholino-1-(phenylthio)butan-2-yl)amino)-3-((trifluoromethyl)sulfonyl)phenyl)sulfonyl)carbamoyl)phenyl)piperazin-1-yl)methyl)-2,3,4,5-tetrahydro-[1,1′-biphenyl]-4-yl)methyl)-1,4-diazepan-1-yl)-7-oxoheptanamido)-3,3-dimethylbutanoyl)-4-hydroxy-N—((S)-1-(4-(4-methylthiazol-5-yl)phenyl)ethyl)pyrrolidine-2-carboxamide], the results for the IC50 in assay [1] and in assay [2] were 0.05 to 0.15 µM and less than 0.05 µM, respectively.
The like results for `Cc1ncsc1-c1ccc([C@H](C)NC(=O)[C@@H]2C[C@@H](O)CN2C(=O)[C@@H](NC(=O)CCCCCCC(=O)N2CCC3(CCN(CC4(C)CCC(c5ccc(Cl)cc5)=C(CN5CCN(c6ccc(C(=O)NS(=O)(=O)c7ccc(N[C@H](CCN8CCOCC8)CSc8ccccc8)c(S(=O)(=O)C(F)(F)F)c7)cc6)CC5)C4)CC3)CC2)C(C)(C)C)cc1` (stereo partly drawn) [degrader #29, (2S,4R)-1-((2S)-2-(8-(9-((4′-chloro-4-methyl-6-((4-(4-(((4-(((R)-4-morpholino-1-(phenylthio)butan-2-yl)amino)-3-((trifluoromethyl)sulfonyl)phenyl)sulfonyl)carbamoyl)phenyl)piperazin-1-yl)methyl)-2,3,4,5-tetrahydro-[1,1′-biphenyl]-4-yl)methyl)-3,9-diazaspiro[5.5]undecan-3-yl)-8-oxooctanamido)-3,3-dimethylbutanoyl)-4-hydroxy-N—((S)-1-(4-(4-methylthiazol-5-yl)phenyl)ethyl)pyrrolidine-2-carboxamide] were, in that order, less than 0.05 µM and less than 0.05 µM.

One may read the IC50 as the point on the concentration scale where inhibition reaches its midpoint.

Values taken from US20220169628A1 (University of Florida Research Foundation, Incorporated, priority 2019, published 2022).
